Reference: patent US10287301B2 (Achillion Pharmaceuticals, Inc., priority 2015, dated 2019)

target: Human Factor D (Homo sapiens (Human), UniProt P00746); experiment: Human Factor D Assay; type: biochemical; conditions: not given
Outline: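 Thioesterase activity monitored with Z-L-Lys-SBzl plus Ellman's reagent (DTNB), each 100 μM final, after 5 min room-temperature compound preincubation of 80 nM human serum Factor D in pH 7.5 Tris (50 mM)/1M NaCl.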

Human Factor D, sequence (P00746 26-253): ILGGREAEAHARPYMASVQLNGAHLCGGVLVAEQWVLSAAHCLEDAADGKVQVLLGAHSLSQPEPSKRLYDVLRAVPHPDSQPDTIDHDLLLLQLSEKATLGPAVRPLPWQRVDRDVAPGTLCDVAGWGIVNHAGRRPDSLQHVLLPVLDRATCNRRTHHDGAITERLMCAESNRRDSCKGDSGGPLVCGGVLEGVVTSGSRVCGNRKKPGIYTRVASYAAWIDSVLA

| SMILES | IC50 [nM] |
| --- | --- |
| CC(=O)c1cn(CC(=O)N2C[C@H](F)C[C@H]2C(=O)Nc2ccccc2-c2nc3ccccc3s2)c2ccc(-c3ccnnc3)cc12 [Compound 34, (2S,4R)-1-(2-(3-acetyl-5-(pyridazin-4-yl)-1H-indol-1-yl)acetyl)-N-(2-(benzo[d]thiazol-2-yl)phenyl)-4-fluoropyrrolidine-2-carboxamide] | > 10000 |
| CC(=O)c1nn(CC(=O)N2CCC[C@H]2C(=O)Nc2cccc(C)n2)c2ccc(-c3ccc4c(c3)CCC4)cc12 [Compound 572, (S)-1-(2-(3-Acetyl-5-(2,3-dihydro-1H-inden-5-yl)-1H-indazol-1-yl)acetyl)-N-(6-methylpyridin-2-yl)pyrrolidine-2-carboxamide] | 1000 to 10000 |

same assay, conditions: Human Factor D 80 nM, substrate Z-L-Lys-SBzl; read-out: IC50

| SMILES | IC50 [nM] |
| --- | --- |
| CC(=O)Nc1ncc(-c2ccc3c(c2)c(C(C)=O)cn3CC(=O)N2C[C@H](F)C[C@H]2C(=O)Nc2cccc(-c3ccccc3Cl)c2F)cn1 [Compound 138, (2S,4R)-1-(2-(5-(2-acetamidopyrimidin-5-yl)-3-acetyl-1H-indol-1-yl)acetyl)-N-(2′-chloro-2-fluorobiphenyl-3-yl)-4-fluoropyrrolidine-2-carboxamide] | < 1000 |
| CC(=O)c1cn(CC(=O)N2C[C@H](F)C[C@H]2C(=O)Nc2ccc3c(c2)OC(C)(C)C3)c2ccc(-c3ccnnc3)cc12 [Compound 75, (2S,4R)-1-(2-(3-acetyl-5-(pyridazin-4-yl)-1H-indol-1-yl)acetyl)-N-(2,2-dimethyl-2,3-dihydrobenzofuran-6-yl)-4-fluoropyrrolidine-2-carboxamide] | < 1000 |
| CC(=O)c1cn(CC(=O)N2C[C@H](F)C[C@H]2C(=O)NCc2cc(F)cc(Cl)c2)c2ccc(-c3ccnnc3)cc12 [Compound 46, (2S,4R)-1-(2-(3-acetyl-5-(pyridazin-4-yl)-1H-indol-1-yl)acetyl)-N-(3-chloro-5-fluorobenzyl)-4-fluoropyrrolidine-2-carboxamide] | < 1000 |
| CC(=O)c1cn(CC(=O)N2C[C@H](F)C[C@H]2C(=O)Nc2cccc(Cl)c2C(F)(F)F)c2ccc(-c3ccnnc3)cc12 [Compound 126, (2S,4R)-1-(2-(3-acetyl-5-(pyridazin-4-yl)-1H-indol-1-yl)acetyl)-N-(3-chloro-2-(trifluoromethyl)phenyl)-4-fluoropyrrolidine-2-carboxamide] | > 10000 |

same assay, conditions: Human Factor D assay of Example 8; Table 2; read-out: IC50

| SMILES | IC50 [nM] |
| --- | --- |
| CC(=O)c1cn(CC(=O)N2C[C@H](F)C[C@H]2C(=O)Nc2cccc(C(F)(F)F)n2)c2ccc(-c3cnc4cc(C)nn4c3)cc12 [Compound 301, (2S,4R)-1-(2-(3-acetyl-5-(2-methylpyrazolo[1,5-a]pyrimidin-6-yl)-1H-indol-1-yl)acetyl)-4-fluoro-N-(6-(trifluoromethyl)pyridin-2-yl)pyrrolidine-2-carboxamide] | < 1000 |
| CCOc1ncc(-c2ccc3c(c2)c(C(C)=O)cn3CC(=O)N2C[C@H](F)C[C@H]2C(=O)Nc2cccc(-c3ccccc3Cl)c2F)cn1 [Compound 194, (2S,4R)-1-(2-(3-acetyl-5-(2-ethoxypyrimidin-5-yl)-1H-indol-1-yl)acetyl)-N-(2′-chloro-2-fluorobiphenyl-3-yl)-4-fluoropyrrolidine-2-carboxamide] | < 1000 |
| CC(=O)c1nn(CC(=O)N2[C@@H]3C[C@@H]3C[C@H]2C(=O)Nc2cccc(Br)n2)c2ccc(-c3cnc4cc(C)nn4c3)cc12 [Compound 257, (1R,3S,5R)-2-(2-(3-acetyl-5-(2-methylpyrazolo[1,5-a]pyrimidin-6-yl)-1H-indazol-1-yl)acetyl)-N-(6-bromopyridin-2-yl)-2-azabicyclo[3.1.0] hexane-3-carboxamide] | < 1000 |

same assay, conditions: Human Factor D, Table 3; read-out: IC50

| SMILES | IC50 [nM] |
| --- | --- |
| CC(=O)c1nn(CC(=O)N2[C@H](C(=O)Nc3cccc(C(F)(F)F)n3)C[C@@]3(C)C[C@@H]23)c2ccc(-c3cnc(C)nc3)cc12 [Compound 631, (1R,3S,5R)-2-(2-(3-acetyl-5-(2-methylpyrimidin-5-yl)-1H-indazol-1-yl)acetyl)-5-methyl-N-(6-(trifluoromethyl)pyridin-2-yl)-2-azabicyclo[3.1.0] hexane-3-carboxamide] | < 1000 |
| CC(=O)c1nn(CC(=O)N2C[C@H](F)C[C@H]2C(=O)Nc2cnc(C)c(Br)n2)c2ccc(-c3cnc4cc(C5CC5)nn4c3)cc12 [Compound 675, (2S,4R)-1-(2-(3-Acetyl-5-(2-cyclopropylpyrazolo[1,5-a]pyrimidin-6-yl)-1H-indazol-1-yl)acetyl)-N-(6-bromo-5-methylpyrazin-2-yl)-4-fluoropyrrolidine-2-carboxamide] | < 1000 |
| CC(=O)c1nn(CC(=O)N2C[C@@](F)(CN(C)C)C[C@H]2C(=O)Nc2cccc(Br)n2)c2ccc(-c3cnc(C)nc3)cc12 [Compound 639, (2S,4S)-1-(2-(3-Acetyl-5-(2-methylpyrimidin-5-yl)-1H-indazol-1-yl)acetyl)-N-(6-bromopyridin-2-yl)-4-((dimethylamino)methyl)-4-fluoropyrrolidine-2-carboxamide] | < 1000 |
| Cc1cccc(NC(=O)[C@@H]2[C@H]3CC[C@H](C3)N2C(=O)Cn2cc(C(N)=O)c3cc(-c4cnc5n4CCCC5)ccc32)n1 [Compound 698, 1-(2-((1R,3S,4S)-3-(6-Methylpyridin-2-ylcarbamoyl)-2-azabicyclo[2.2.1]heptan-2-yl)-2-oxoethyl)-5-(5,6,7,8-tetrahydroimidazo[1,2-a]pyridin-3-yl)-1H-indole-3-carboxamide] | > 10000 |
| CC(=O)c1nn(CC(=O)N2C(C(=O)Nc3cccc(Br)n3)C[C@@]3(CN(C)C)C[C@@H]23)c2ccc(-c3cnc(C)nc3)cc12 (stereo in doubt) [Compound 577, (1R,3S,5R)-2-(2-(3-Acetyl-5-(2-methylpyrimidin-5-yl)-1H-indazol-1-yl)acetyl)-N-(6-bromopyridin-2-yl)-5-((dimethylamino)methyl)-2-azabicyclo[3.1.0]hexane-3-carboxamide] | < 1000 |
| CC(=O)c1nn(CC(=O)N2[C@@H]3C[C@@H]3C[C@H]2C(=O)NC2CCN(CC(F)(F)F)C2)c2ccc(-c3cnc(C)nc3)cc12 (stereo partly drawn) [Compound 611, (1R, 3S, 5R)-2-(2-(3-acetyl-5-(2-methylpyrimidin-5-yl)-1H-indazol-1-yl)acetyl)-N-(1-(2,2,2-trifluoroethyl)pyrrolidin-3-yl)-2-azabicyclo [3.1.0] hexane-3-carboxamide] | < 1000 |
| CC(=O)c1nn(CC(=O)N2C[C@H](F)C[C@H]2C(=O)Nc2cnc(C)c(Br)n2)c2ccc(-c3ccc4nc(C)nn4c3)cc12 [Compound 663, (2S,4R)-1-(2-(3-Acetyl-5-(2-methyl-[1,2,4]triazolo[1,5-a]pyridin-6-yl)-1H-indazol-1-yl)acetyl)-N-(6-bromo-5-methylpyrazin-2-yl)-4-fluoropyrrolidine-2-carboxamide] | < 1000 |

same assay, conditions: Table 3; Human Factor D 80 nM, substrate Z-L-Lys-SBzl; read-out: IC50 (Stars)

| SMILES | IC50 [nM] |
| --- | --- |
| CC(=O)c1nn(CC(=O)N2C[C@H](F)C[C@H]2C(=O)Nc2cccc(Br)n2)c2cc(CN(C)C)c(-c3cnc(C)nc3)cc12 [Compound 387, (2S,4R)-1-(2-(3-Acetyl-6-((dimethylamino)methyl)-5-(2-methylpyrimidin-5-yl)-1H-indazol-1-yl)acetyl)-N-(6-bromopyridin-2-yl)-4-fluoropyrrolidine-2-carboxamide] | < 1000 |
| CC(=O)c1nn(CC(=O)N2C[C@H](F)C[C@H]2C(=O)Nc2cccc(Br)n2)c2ccc(-c3cnc(S(C)(=O)=O)nc3)cc12 [Compound 521, (2S,4R)-1-(2-(3-Acetyl-5-(2-(methylsulfonyl)pyrimidin-5-yl)-1H-indazol-1-yl)acetyl)-N-(6-bromopyridin-2-yl)-4-fluoropyrrolidine-2-carboxamide] | < 1000 |
| CC(=O)c1nn(CC(=O)N2C[C@H](F)C[C@H]2C(=O)NCC2CC2(Cl)Cl)c2ccc(-c3cnc(C)nc3)cc12 (stereo partly drawn) [Compound 459, (2S,4R)-1-(2-(3-acetyl-5-(2-methylpyrimidin-5-yl)-1H-indazol-1-yl)acetyl)-N-((2,2-dichlorocyclopropyl)methyl)-4-fluoropyrrolidine-2-carboxamide] | < 1000 |
| CC(=O)c1nn(CC(=O)N2C[C@H](F)C[C@H]2C(=O)Nc2cccc(Br)n2)c2cc(C(=O)N(C)C)c(-c3cnc(C)nc3)cc12 [Compound 362, 3-acetyl-1-(2-((2S,4R)-2-((6-bromopyridin-2-yl)carbamoyl)-4-fluoropyrrolidin-1-yl)-2-oxoethyl)-N,N-dimethyl-5-(2-methylpyrimidin-5-yl)-1H-indazole-6-carboxamide] | < 1000 |
| CC(=O)c1nn(CC(=O)N2C[C@@](F)(CF)C[C@H]2C(=O)Nc2nc(Br)ccc2C)c2ccc(-c3cnc(C)nc3)cc12 [Compound 511, (2S,4R)-1-(2-(3-Acetyl-5-(2-methylpyrimidin-5-yl)-1H-indazol-1-yl)acetyl)-N-(6-bromo-3-methylpyridin-2-yl)-4-fluoro-4-(fluoromethyl)pyrrolidine-2-carboxamide] | < 1000 |
| CO[C@H]1[C@@H](C(=O)Nc2cccc(Br)n2)N(C(=O)Cn2nc(C(C)=O)c3cc(-c4cnc(C)nc4)ccc32)C[C@@H]1F [Compound 393, (2S,3S,4S)-1-(2-(3-Acetyl-5-(2-methylpyrimidin-5-yl)-1H-indazol-1-yl)acetyl)-N-(6-bromopyridin-2-yl)-4-fluoro-3-methoxypyrrolidine-2-carboxamide] | < 1000 |
| COc1ncc(-c2ccc3c(c2)c(C(C)=O)nn3CC(=O)N2[C@@H]3C[C@@H]3C[C@H]2C(=O)Nc2nc(Br)ccc2C)cn1 [Compound 445, (1R,3S,5R)-2-(2-(3-Acetyl-5-(2-methoxypyrimidin-5-yl)-1H-indazol-1-yl)acetyl)-N-(6-bromo-3-methylpyridin-2-yl)-2-azabicyclo[3.1.0]hexane-3-carboxamide] | < 1000 |
| COc1ncc(-c2ccc3c(c2)c(C(C)=O)nn3CC(=O)N2[C@@H]3C[C@@H]3C[C@H]2C(=O)Nc2cncc(Br)n2)cn1 [Compound 385, (1R,3S,5R)-2-(2-(3-Acetyl-5-(2-methoxypyrimidin-5-yl)-1H-indazol-1-yl)acetyl)-N-(6-bromopyrazin-2-yl)-2-azabicyclo[3.1.0]hexane-3-carboxamide] | < 1000 |
